Laboratory results from US20240336608A1, “IL4I1 INHIBITORS AND METHODS OF USE” (Merck Sharp & Dohme LLC, priority 2023, published 2024).

Biological target: T1, recombinant IL4I1 (Homo sapiens, UniProt Q96RQ9)
T1 construct: purchased R&D Systems 5684-AO-020
T1 sequence (Q96RQ9 22-567): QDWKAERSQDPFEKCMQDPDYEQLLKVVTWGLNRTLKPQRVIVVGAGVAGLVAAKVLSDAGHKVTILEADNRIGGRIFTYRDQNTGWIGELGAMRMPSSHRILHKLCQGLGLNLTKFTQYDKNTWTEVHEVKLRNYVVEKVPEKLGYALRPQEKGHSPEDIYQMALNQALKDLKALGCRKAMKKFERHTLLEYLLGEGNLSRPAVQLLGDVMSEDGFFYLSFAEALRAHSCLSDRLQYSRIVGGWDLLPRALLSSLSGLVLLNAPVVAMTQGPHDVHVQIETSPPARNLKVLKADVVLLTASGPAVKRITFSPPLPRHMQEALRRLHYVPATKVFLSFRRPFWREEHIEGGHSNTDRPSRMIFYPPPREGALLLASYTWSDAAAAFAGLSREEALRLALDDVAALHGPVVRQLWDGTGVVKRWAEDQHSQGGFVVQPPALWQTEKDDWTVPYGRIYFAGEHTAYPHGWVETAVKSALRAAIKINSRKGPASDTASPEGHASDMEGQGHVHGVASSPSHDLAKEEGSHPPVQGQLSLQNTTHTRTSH
Test: IL4I1 Enzymatic Assay (Amplex Red/HRP coupled detection of H2O2, fluorescence)
Format: biochemical
Details: 1 nM recombinant IL4I1; four-hour pre-incubation with compound; 1 mM each Phe, Tyr, Trp; ten-point titration
Experimental: Interleukin 4 inducible protein 1 (IL4I1) is an L-amino oxidase that catalyzes the oxidation of aromatic residues (Phe, Trp and Tyr): L-amino acid+H2O+O2→2-oxo acid+NH3+H2O2. Equal molar of H2O2 and the corresponding alpha-ketoacid are produced when IL4I1 and substrate are added. In this assay, the hydrogen peroxide generated by IL4I1 is then detected through a coupled reaction with Amplex Red (10-acetyl-3,7-dihydroxyphenoxazine) and […] (HRP) to produce Resorufin product that could be detected in the form of fluorescence signals. The assessment of the inhibitory effect of small molecules (EC50) on IL4I1 is measured by the effectiveness of the compounds to inhibit the production of H202.
Using this assay, the potency (EC50) of each compound was determined from a ten-point (1:3 serial dilution) titration curve using the following outlined procedure. To each well of a black flat-bottom Greiner (Cat #781076) 384 well-plate, 125 nL of compound (0.5% DMSO in final assay volume of 25 μL) was dispensed, followed by the addition of 12.5 μL of 1× assay buffer (50 mM Hepes 7.0 and 0.005% Tween20 (Sigma, Cat #P8341; low peroxide grade)) containing 2 nM of recombinant IL4I1 (R&D Systems, Cat #5684-AO-020). Plates were placed in an ambient temperature humidified chamber for a four-hour pre-incubation with compound. Subsequently, each reaction was initiated by the addition of 12.5 μL 1× assay buffer containing 2 mM of each aromatic amino acids (Phe/Tyr/Trp), 0.1 mM Amplex Red and 2 U/mL of HRP. The final reaction in each well of 25 μL consists of 1 nM of IL4I1, 1 mM of each residue (Phe, Tyr and Trp), 0.05 mM Amplex Red and 1 U/mL of HRP. It should be noted that the concentrations of Amplex Red and HRP used here are in excess such that the conversion of H2O2 to Resorufin product occurs instantaneously and non-rate limiting. Reactions were allowed to proceed for 120 minutes followed by fluorescence readout on a Spectramax with the following set parameters: 544 nm excitation/590 nm emission, 570 nm cutoff (EnVision is an alternative reader). Dose-response curves were generated by plotting percent effect (% inhibition; Y-axis) vs. Log10 compound concentrations (X-axis). EC50 values were calculated using a non-linear regression, four-parameters sigmoidal dose-response model and are shown in Table 16.

How did the EC50 turn out when Cc1ccc(-n2cc(C(=O)NCc3ccc(-c4cccs4)nn3)nn2)c(C)n1 [Example 121, 1-(2,6-dimethylpyridin-3-yl)-N-((6-(thiophen-2-yl)pyridazin-3-yl)methyl)-1H-1,2,3-triazole-4-carboxamide] was run?
Its EC50 is 24 nM.

CC1(Cn2cc(C(=O)NCc3nnc(-c4ccccc4)s3)nn2)COC1 [Example 161, 1-((3-methyloxetan-3-yl)methyl)-N-((5-phenyl-1,3,4-thiadiazol-2-yl)methyl)-1H-1,2,3-triazole-4-carboxamide] was tested. Which EC50 did it give?
The EC50 was 22 nM.

For O=C(NCc1nnc(-c2ccccc2)s1)c1cn([C@@H]2COC[C@H]2CO)nn1 (stereo in doubt) [Example 147, 1-[(3S,4R)-4-(hydroxymethyl)oxolan-3-yl]-N-[(5-phenyl-1,3,4-thiadiazol-2-yl)methyl]-1H-1,2,3-triazole-4-carboxamide], which EC50 is on record?
The EC50 was 325 nM.

With COc1ccc(-n2cc(C(=O)NCc3nnc(-c4ccccc4)s3)nn2)c(C)n1 [Example 229, 1-(6-methoxy-2-methylpyridin-3-yl)-N-((5-phenyl-1,3,4-thiadiazol-2-yl)methyl)-1H-1,2,3-triazole-4-carboxamide] as the compound, how does the EC50 read?
The EC50 was 8 nM.

CC(O)c1cc(C(=O)NCc2nnc(-c3ccccc3)s2)no1 (stereo not shown) [Example 3, 5-(1-hydroxyethyl)-N-[(5-phenyl-1,3,4-thiadiazol-2-yl)methyl]isoxazole-3-carboxamide] was tested. Which EC50 did it give?
The EC50 was 9 nM.

How did the EC50 turn out when Cc1ccc(-n2cc(C(=O)NCc3ccc(-n4nccn4)cn3)nn2)c(C)n1 [Example 216, 1-(2,6-dimethylpyridin-3-yl)-N-{[5-(2H-1,2,3-triazol-2-yl)pyridin-2-yl]methyl}-1H-1,2,3-triazole-4-carboxamide] was run?
Its EC50 is 326 nM.

Which EC50 does the source give for O=C(NCc1nnc(-c2ccccc2)s1)c1cc(C(F)(F)F)n[nH]1 [Example 28, N-[(5-phenyl-1,3,4-thiadiazol-2-yl)methyl]-3-(trifluoromethyl)-1H-pyrazole-5-carboxamide] here?
Its EC50 is 710 nM.

For CC1CC1n1cc(C(=O)NCc2nnc(-c3ccccc3)s2)nn1 (single isomer, unassigned) [Example 132, Cis-1-(2-methylcyclopropyl)-N-((5-phenyl-1,3,4-thiadiazol-2-yl)methyl)-1H-1,2,3-triazole-4-carboxamide], which EC50 is on record?
Its EC50 is 7 nM.

Cc1nc(C(C)(C)O)ccc1-n1cc(C(=O)NCc2nnc(-c3ccccc3)s2)nn1 [Example 334, 1-(6-(2-hydroxypropan-2-yl)-2-methylpyridin-3-yl)-N-((5-phenyl-1,3,4-thiadiazol-2-yl)methyl)-1H-1,2,3-triazole-4-carboxamide] was tested. Which EC50 did it give?
The EC50 was 446 nM.

For CC(C(N)=O)n1cc(C(=O)NCc2nnc(-c3ccccc3)s2)nn1 (single isomer, unassigned) [Example 319, 1-(1-amino-1-oxopropan-2-yl)-N-((5-phenyl-1,3,4-thiadiazol-2-yl)methyl)-1H-1,2,3-triazole-4-carboxamide], which EC50 is on record?
The EC50 was 8 nM.

How did the EC50 turn out when O=C(NCc1nnc(-c2ccccc2)s1)c1cn(CCCC(F)(F)F)nn1 [Example 98, N-((5-phenyl-1,3,4-thiadiazol-2-yl)methyl)-1-(4,4,4-trifluorobutyl)-1H-1,2,3-triazole-4-carboxamide] was run?
The EC50 was 272 nM.

CC(NC(=O)c1cn(CC(F)F)nn1)c1ccc(-c2ccccc2)nn1 (single isomer, unassigned) [Example 349, 1-(2,2-difluoroethyl)-N-(1-(6-phenylpyridazin-3-yl)ethyl)-1H-1,2,3-triazole-4-carboxamide] was tested. Which EC50 did it give?
The EC50 was 14 nM.

How did the EC50 turn out when C[C@H](O)Cn1cc(C(=O)NCc2nnc(-c3ccccc3)s2)nn1 [Example 128, (S)-1-(2-hydroxypropyl)-N-((5-phenyl-1,3,4-thiadiazol-2-yl)methyl)-1H-1,2,3-triazole-4-carboxamide] was run?
Its EC50 is 27 nM.

With Cn1ccc(C(=O)NCc2nnc(-c3ccccc3)s2)n1 [Example 14, 1-methyl-N-[(5-phenyl-1,3,4-thiadiazol-2-yl)methyl]pyrazole-3-carboxamide] as the compound, how does the EC50 read?
The EC50 was 291 nM.

Which EC50 does the source give for N#CC1(n2cc(C(=O)NCc3nnc(-c4ccccc4)s3)nn2)CC1 [Example 160, 1-(1-cyanocyclopropyl)-N-((5-phenyl-1,3,4-thiadiazol-2-yl)methyl)-1H-1,2,3-triazole-4-carboxamide] here?
The EC50 was 36 nM.

For NC(=O)C(F)(F)Cn1cc(C(=O)NCc2nnc(-c3ccccc3)s2)nn1 [Example 332, 1-(3-amino-2,2-difluoro-3-oxopropyl)-N-((5-phenyl-1,3,4-thiadiazol-2-yl)methyl)-1H-1,2,3-triazole-4-carboxamide], which EC50 is on record?
Its EC50 is 8 nM.

COc1ccc(-n2cc(C(=O)NCc3nnc(-c4ccccc4)s3)nn2)cn1 [Example 236, 1-(6-methoxypyridin-3-yl)-N-((5-phenyl-1,3,4-thiadiazol-2-yl)methyl)-1H-1,2,3-triazole-4-carboxamide] was tested. Which EC50 did it give?
Its EC50 is 12 nM.

How did the EC50 turn out when Cc1ccc(-n2cc(C(=O)NCc3cc(-c4ccncc4)on3)nn2)c(C)n1 [Example 266, 1-(2,6-dimethylpyridin-3-yl)-N-((5-(pyridin-4-yl)isoxazol-3-yl)methyl)-1H-1,2,3-triazole-4-carboxamide] was run?
The EC50 was 26 nM.

For CC(O)c1cc(C(=O)NCc2nnc(-c3ccccc3)s2)on1 (single isomer, unassigned) [Example 330, 3-(1-hydroxyethyl)-N-((5-phenyl-1,3,4-thiadiazol-2-yl)methyl)isoxazole-5-carboxamide], which EC50 is on record?
The EC50 was 69 nM.

Which EC50 does the source give for COC1CC(n2cc(C(=O)NCc3nnc(-c4ccccc4)s3)nn2)C1 (stereo not shown) [Example 174, 1-(3-methoxycyclobutyl)-N-((5-phenyl-1,3,4-thiadiazol-2-yl)methyl)-1H-1,2,3-triazole-4-carboxamide] here?
Its EC50 is 16 nM.

For CC(CC(F)(F)F)n1cc(C(=O)NCc2nnc(-c3ccccc3)s2)nn1 (single isomer, unassigned) [Example 63, N-((5-phenyl-1,3,4-thiadiazol-2-yl)methyl)-1-(4,4,4-trifluorobutan-2-yl)-1H-1,2,3-triazole-4-carboxamide], which EC50 is on record?
Its EC50 is 18 nM.

For O=C(NCc1nnc(-c2ccccc2)s1)c1cn(CCO)nn1 [Example 233, 1-(2-hydroxyethyl)-N-((5-phenyl-1,3,4-thiadiazol-2-yl)methyl)-1H-1,2,3-triazole-4-carboxamide], which EC50 is on record?
The EC50 was 10 nM.

CC(C(N)=O)n1cc(C(=O)NCc2nnc(-c3ccccc3)s2)nn1 (single isomer, unassigned) [Example 318, 1-(1-amino-1-oxopropan-2-yl)-N-((5-phenyl-1,3,4-thiadiazol-2-yl)methyl)-1H-1,2,3-triazole-4-carboxamide] was tested. Which EC50 did it give?
The EC50 was 209 nM.

Which EC50 does the source give for CC(C)(C)OC(=O)N1CC(n2cc(C(=O)NCc3nnc(-c4ccccc4)s3)nn2)C1 [Example 69, tert-butyl 3-(4-(((5-phenyl-1,3,4-thiadiazol-2-yl)methyl)carbamoyl)-1H-1,2,3-triazol-1-yl)azetidine-1-carboxylate] here?
The EC50 was 9 nM.

How did the EC50 turn out when O=C(NCc1nnc(-c2ccccc2)s1)c1cc2c(o1)CCNC2=O [Example 56, 4-oxo-N-[(5-phenyl-1,3,4-thiadiazol-2-yl)methyl]-6,7-dihydro-5H-furo[3,2-c]pyridine-2-carboxamide] was run?
The EC50 was 234 nM.

With O=C(NCc1nnc(-c2ccccc2)s1)c1cn(C2CCOC2)nn1 (stereo not shown) [Example 305, N-((5-phenyl-1,3,4-thiadiazol-2-yl)methyl)-1-(tetrahydrofuran-3-yl)-1H-1,2,3-triazole-4-carboxamide] as the compound, how does the EC50 read?
Its EC50 is 29 nM.

How did the EC50 turn out when Cn1cnc(C(=O)NCc2nnc(-c3ccccc3)s2)c1 [Example 32, 1-methyl-N-((5-phenyl-1,3,4-thiadiazol-2-yl)methyl)-1H-imidazole-4-carboxamide] was run?
Its EC50 is 77 nM.

O=C(NCc1nnc(-c2ccccc2)s1)c1cn(CC(O)C2CC2)nn1 (stereo not shown) [Example 181, 1-(2-cyclopropyl-2-hydroxyethyl)-N-((5-phenyl-1,3,4-thiadiazol-2-yl)methyl)-1H-1,2,3-triazole-4-carboxamide] was tested. Which EC50 did it give?
Its EC50 is 239 nM.
